Source: patent publication US11168095B2, “ASK1 inhibiting agents” (BIOGEN MA INC., priority 2017, dated 2021)
pIC50: −log10 of the molar value. Like-named read-outs stand apart in the source and are kept apart here.

Columns and labels:
GST-hASK1 = GST-hASK1 (Homo sapiens (Human), UniProt Q99683); test: ASK1 TR-FRET assay; type: biochemical; settings: 5 nM GST-hASK1, 100 μM ATP, 2 μM STK Substrate 3
Experimental: The protein kinase activity of 5 nM GST-hASK1(Life Technologies PV4011) was assayed with 100 μM ATP and 2 μM of HTRF biotinylated STK Substrate 3 (CisBio Kit 62ST3PEJ), at ambient temperature in 25 mM Hepes, pH 7.5, 50 mM NaCl, 10 mM MgCl2, 0.02% Brij-35, 1 mM DTT, and 1% DMSO.
After a 10 minute pre-incubation, ASK1 protein kinase activity was initiated by addition of 10 μL of 300 μM ATP.

ASK1/MAP3K5 = ASK1/MAP3K5 (Homo sapiens (Human), UniProt Q99683); test: ASK1/MAP3K5 assay by Reaction Biology Corp.; type: biochemical; settings: 20 μM myelin basic protein (MBP), 10 μM ATP
ASK1/MAP3K5, sequence (Q99683 whole entry): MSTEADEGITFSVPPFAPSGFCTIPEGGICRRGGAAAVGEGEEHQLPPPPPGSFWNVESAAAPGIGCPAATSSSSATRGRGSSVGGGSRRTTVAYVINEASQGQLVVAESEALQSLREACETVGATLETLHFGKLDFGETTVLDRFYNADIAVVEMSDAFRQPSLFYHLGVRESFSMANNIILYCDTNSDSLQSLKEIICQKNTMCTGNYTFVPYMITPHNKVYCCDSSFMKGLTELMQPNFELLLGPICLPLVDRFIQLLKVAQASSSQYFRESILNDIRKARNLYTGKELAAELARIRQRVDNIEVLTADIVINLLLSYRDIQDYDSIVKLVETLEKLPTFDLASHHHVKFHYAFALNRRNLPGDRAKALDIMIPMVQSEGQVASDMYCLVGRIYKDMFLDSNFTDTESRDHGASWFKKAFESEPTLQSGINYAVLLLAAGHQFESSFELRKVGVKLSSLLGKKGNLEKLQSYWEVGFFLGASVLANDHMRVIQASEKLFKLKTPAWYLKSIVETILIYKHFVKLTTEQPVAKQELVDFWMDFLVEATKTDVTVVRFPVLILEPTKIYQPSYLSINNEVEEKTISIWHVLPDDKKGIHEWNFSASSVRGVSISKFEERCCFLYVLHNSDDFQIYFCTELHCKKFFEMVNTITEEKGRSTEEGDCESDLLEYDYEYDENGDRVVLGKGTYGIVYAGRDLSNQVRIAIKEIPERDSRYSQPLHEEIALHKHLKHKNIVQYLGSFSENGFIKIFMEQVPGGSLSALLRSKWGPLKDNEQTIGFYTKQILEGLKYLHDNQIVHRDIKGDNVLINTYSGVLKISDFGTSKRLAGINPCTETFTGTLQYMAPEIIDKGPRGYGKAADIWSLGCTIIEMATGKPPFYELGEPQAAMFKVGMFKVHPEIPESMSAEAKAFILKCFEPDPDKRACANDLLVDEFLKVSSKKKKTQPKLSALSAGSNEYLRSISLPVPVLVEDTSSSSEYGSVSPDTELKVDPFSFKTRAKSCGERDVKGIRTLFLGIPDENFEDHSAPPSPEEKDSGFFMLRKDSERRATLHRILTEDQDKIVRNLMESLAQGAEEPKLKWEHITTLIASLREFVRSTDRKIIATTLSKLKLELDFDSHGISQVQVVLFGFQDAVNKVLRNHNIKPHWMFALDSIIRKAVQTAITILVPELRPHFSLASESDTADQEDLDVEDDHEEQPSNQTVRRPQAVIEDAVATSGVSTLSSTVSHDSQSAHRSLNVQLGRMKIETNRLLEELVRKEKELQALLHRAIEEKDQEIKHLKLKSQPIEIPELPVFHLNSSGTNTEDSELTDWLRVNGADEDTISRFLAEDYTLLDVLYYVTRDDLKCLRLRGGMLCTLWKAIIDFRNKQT
Experimental: ASK1/MAP3K5 was used as the protein kinase and 20 μM of myelin basic protein (MBP) and 10 μM ATP were used as the substrate.

[1] = target: ASK1 T838 auto phosphorylation in HEK-293T cells (Homo sapiens (Human), UniProt Q99683); test: ASK1 (AUTO PHOS T838) assay, MSD format; type: cell-based
ASK1 T838 auto phosphorylation in HEK-293T cells, sequence (Q99683 whole entry): as above

[2] = HEK 293T cells transfected with ASK1-V5 full length plasmid, compounds 1 hr at 37° C., read-out: IC50

GST-hASK1, sequence (Q99683 649-946): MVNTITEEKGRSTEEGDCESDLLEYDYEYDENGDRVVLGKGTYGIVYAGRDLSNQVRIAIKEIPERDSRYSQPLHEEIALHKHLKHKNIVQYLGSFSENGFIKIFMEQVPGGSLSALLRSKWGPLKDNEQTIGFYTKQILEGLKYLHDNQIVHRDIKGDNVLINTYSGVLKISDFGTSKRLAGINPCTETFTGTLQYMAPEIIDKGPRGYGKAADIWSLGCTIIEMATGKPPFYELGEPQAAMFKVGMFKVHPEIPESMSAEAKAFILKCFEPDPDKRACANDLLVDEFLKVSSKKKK

SMILES	pIC50 (GST-hASK1)	pIC50 (ASK1/MAP3K5)	pIC50 [1, 2]	pIC50 (GST-hASK1; class given in words)	pIC50 [1]	pIC50 ([1]; read-out: IC50)
Cn1nccc1-c1ccc2c(c1)C(=O)Nc1cccc(n1)-c1nncn1CCCCO2 [Example 23, 5^5-(1-Methyl-1H-pyrazol-5-yl)-1^4H-6-oxa-3-aza-2(2,6)-pyridina-1(3,4)-triazola-5(1,2)-benzenacyclodecaphan-4-one]	> 7.00	> 7.00	> 6.00			
O=C1Nc2cccc(n2)-c2nncn2CCCCCOc2ccc(N3CC4(COC4)C3)cc21 [Example 173, 5^5-(2-Oxa-6-azaspiro[3.3]heptan-6-yl)-1^4H-6-oxa-3-aza-2(2,6)-pyridina-1(3,4)-triazola-5(1,2)-benzenacycloundecaphan-4-one]	> 7.00	> 7.00	> 6.00			
O=C1Nc2cccc(n2)-c2nncn2CCCCOc2ccc(C3CCOC3)cc21 (racemic) [Example 15, rac-5^5-(Tetrahydrofuran-3-yl)-1^4H-6-oxa-3-aza-2(2,6)-pyridina-1(3,4)-triazola-5(1,2)-benzenacyclodecaphan-4-one]	> 7.00	> 7.00	> 6.00			
Cc1cc(-c2ccc3c(c2)C(=O)Nc2cccc(n2)-c2nncn2CCCCO3)n(C)n1 [Example 34, 5^5-(1,3-Dimethyl-1H-pyrazol-5-yl)-1^4H-6-oxa-3-aza-2(2,6)-pyridina-1(3,4)-triazola-5(1,2)-benzenacyclodecaphan-4-one]	> 7.00	> 7.00	> 6.00			
O=C1Nc2cccc(n2)-c2nncn2CCCCOc2ccc(N3CC4CC(C3)O4)cc21 [Example 6, 5^5-(6-Oxa-3-azabicyclo[3.1.1]heptan-3-yl)-1^4H-6-oxa-3-aza-2(2,6)-pyridina-1(3,4)-triazola-5(1,2)-benzenacyclodecaphan-4-one]	> 7.00	> 7.00	> 6.00			
O=C1Nc2cccc(n2)-c2nncn2CCCCOc2ccc(N3CCC(F)(F)C3)cc21 [Example 10, 5^5-(3,3-Difluoropyrrolidin-1-yl)-1^4H-6-oxa-3-aza-2(2,6)-pyridina-1(3,4)-triazola-5(1,2)-benzenacyclodecaphan-4-one]	> 7.00	> 7.00	> 6.00			
O=C1Nc2cccc(n2)-c2nncn2CCCCOc2ccc(N3C4COCC3C4)cc21 [Example 8, 5^5-(3-Oxa-6-azabicyclo[3.1.1]heptan-6-yl)-1^4H-6-oxa-3-aza-2(2,6)-pyridina-1(3,4)-triazola-5(1,2)-benzenacyclodecaphan-4-one]	> 7.00	> 7.00	5.00 to 6.00			
O=C1Nc2cccc(n2)-c2nncn2C/C=C/COc2cc(C(F)(F)F)ccc21 [Example 154, (E)-5^4-(Trifluoromethyl)-1^4H-6-oxa-3-aza-2(2,6)-pyridina-1(3,4)-triazola-5(1,2)-benzenacyclodecaphan-8-en-4-one]	6.00 to 7.00		5.00 to 6.00			
Cn1cc(-c2ccc3c(c2)C(=O)Nc2cccc(n2)-c2nncn2CCCCO3)nn1 [Example 30, 5^5-(1-Methyl-1H-1,2,3-triazol-4-yl)-1^4H-6-oxa-3-aza-2(2,6)-pyridina-1(3,4)-triazola-5(1,2)-benzenacyclodecaphan-4-one]	> 7.00		5.00 to 6.00			
O=C1Nc2cccc(n2)-c2nncn2C/C=C/COc2ccc(F)cc21 [Example 158, (E)-5^5-Fluoro-1^4H-6-oxa-3-aza-2(2,6)-pyridina-1(3,4)-triazola-5(1,2)-benzenacyclodecaphan-8-en-4-one]	6.00 to 7.00		5.00 to 6.00			
O=C1Nc2cccc(n2)-c2nncn2CCCCOc2ccc(C3=CCOCC3)cc21 [Example 16, 5^5-(3,6-Dihydro-2H-pyran-4-yl)-1^4H-6-oxa-3-aza-2(2,6)-pyridina-1(3,4)-triazola-5(1,2)-benzenacyclodecaphan-4-one]	> 7.00		> 6.00			
O=C1Nc2cccc(n2)-c2nncn2C/C=C/COc2cc(F)ccc21 [Example 157, (E)-5^4-Fluoro-1^4H-6-oxa-3-aza-2(2,6)-pyridina-1(3,4)-triazola-5(1,2)-benzenacyclodecaphan-8-en-4-one]	6.00 to 7.00		5.00 to 6.00			
O=C1Nc2cccc(n2)-c2nncn2CCCCOc2cc(C(F)(F)F)ccc21 [Example 153, 5^4-(Trifluoromethyl)-1^4H-6-oxa-3-aza-2(2,6)-pyridina-1(3,4)-triazola-5(1,2)-benzenacyclodecaphan-4-one]	> 7.00		> 6.00			
C=Cc1ccc2c(c1)C(=O)Nc1cccc(n1)-c1nncn1CCCCO2 [Example 19, 5^5-Vinyl-1^4H-6-oxa-3-aza-2(2,6)-pyridina-1(3,4)-triazola-5(1,2)-benzenacyclodecaphan-4-one]	> 7.00		> 6.00			
O=C1Nc2cccc(n2)-c2nncn2C/C=C\COc2c1cccc2C(F)(F)F [Example 167, (Z)-5^3-(Trifluoromethyl)-1^4H-6-oxa-3-aza-2(2,6)-pyridina-1(3,4)-triazola-5(1,2)-benzenacyclodecaphan-8-en-4-one]			< 5.00	≤ 5.00		
O=C1Nc2cccc(n2)-c2nncn2CCCCOc2ccc(N3CC4CCC(C3)O4)cc21 [Example 7, 5^5-(8-Oxa-3-azabicyclo[3.2.1]octan-3-yl)-1^4H-6-oxa-3-aza-2(2,6)-pyridina-1(3,4)-triazola-5(1,2)-benzenacyclodecaphan-4-one]	> 7.00		> 6.00			
O=C1Nc2cccc(n2)-c2nncn2CCCCOc2ccc(C3=CCOC3)cc21 [Example 14, 5^5-(2,5-Dihydrofuran-3-yl)-1^4H-6-oxa-3-aza-2(2,6)-pyridina-1(3,4)-triazola-5(1,2)-benzenacyclodecaphan-4-one]	> 7.00		> 6.00			
C[C@@H]1CCCOc2ccc(-c3cnn(C)c3)cc2C(=O)Nc2cccc(n2)-c2nncn21 [Example 95, (R)-10-Methyl-5^5-(1-methyl-1H-pyrazol-4-yl)-1^4H-6-oxa-3-aza-2(2,6)-pyridina-1(3,4)-triazola-5(1,2)-benzenacyclodecaphan-4-one]	6.00 to 7.00		5.00 to 6.00			
O=C1Nc2cccc(n2)-c2nncn2C/C=C/COc2c(Br)cccc21 [Example 163, (E)-5^3-Bromo-1^4H-6-oxa-3-aza-2(2,6)-pyridina-1(3,4)-triazola-5(1,2)-benzenacyclodecaphan-8-en-4-one]	6.00 to 7.00		< 5.00			
O=C1Nc2cccc(n2)-c2nncn2C/C=C\COc2ccc(Br)cc21 [Example 161, (Z)-5^5-Bromo-1^4H-6-oxa-3-aza-2(2,6)-pyridina-1(3,4)-triazola-5(1,2)-benzenacyclodecaphan-8-en-4-one]	> 7.00				5.00 to 6.00	
O=C1Nc2cccc(n2)-c2nncn2C/C=C\COc2ccc(N3CCOCC3)cc21 [Example 169, (Z)-5^5-Morpholino-1^4H-6-oxa-3-aza-2(2,6)-pyridina-1(3,4)-triazola-5(1,2)-benzenacyclodecaphan-8-en-4-one]	> 7.00					> 6.00
CCN1CCN(c2ccc3c(c2)C(=O)Nc2cccc(n2)-c2nncn2CCCCO3)CC1 [Example 13, 5^5-(4-Ethylpiperazin-1-yl)-1^4H-6-oxa-3-aza-2(2,6)-pyridina-1(3,4)-triazola-5(1,2)-benzenacyclodecaphan-4-one]	> 7.00		> 6.00			
O=C1Nc2cccc(n2)-c2nncn2C/C=C/COc2c1cccc2C(F)(F)F [Example 166, (E)-5^3-(Trifluoromethyl)-1^4H-6-oxa-3-aza-2(2,6)-pyridina-1(3,4)-triazola-5(1,2)-benzenacyclodecaphan-8-en-4-one]	5.00 to 6.00		< 5.00			
